# In DBAASP:
# Several values for one entry are separate records, joined by “and”; a condition that tells them apart may be missing. Identical values can stand only once.
# What was measured:
# Assay in all cases: ≥ marks a high value that may be exact or a test limit, other limits are often not marked, values filed in µg/mL are converted to µM
# [1] = test system: Staphylococcus aureus ATCC 25923
# [2] = test system: Acinetobacter baumannii ATCC 19606
# [3] = test system: Staphylococcus aureus ATCC 29213
# [4] = test system: Staphylococcus epidermidis P1389
# Acinetobacter baumannii = test system: Acinetobacter baumannii
# [5] = test system: Bacillus thuringiensis AB92037
# [6] = test system: Bacillus subtilis AB91021
# [7] = test system: Staphylococcus aureus P1386
# Escherichia coli AB94012 = test system: Escherichia coli AB94012
# [8] = test system: Staphylococcus aureus P1369
# [9] = test system: Pseudomonas aeruginosa ATCC 27853
# Candida albicans AY93025 = test system: Candida albicans AY93025
# [10] = test system: Staphylococcus aureus P1374
# [11] = test system: Staphylococcus aureus AB94004
# [12] = test system: Klebsiella pneumoniae ATCC 700603
# [13] = test system: Pseudomonas aeruginosa AB93066
# [14] = test system: Enterococcus faecalis ATCC 29212
# [15] = test system: Escherichia coli ATCC 25922
# [16] = test system: Escherichia coli ATCC 35218
# [17] = test system: Micrococcus luteus AB93113
# [18] = test system: Escherichia coli ATCC 25726
# [19] = test system: Candida albicans ATCC 90028
# [20] = test system: Acinetobacter baumannii I NM8
# [21] = test system: Staphylococcus aureus CUN 3792-99
# [22] = test system: Pseudomonas aeruginosa CUN 4158-02
# [23] = test system: Stenotrophomonas maltophilia CUN 3998-00
# [24] = test system: Staphylococcus aureus ATCC 43300
# [25] = test system: Bordetella bronchiseptica CUN 11844-99
# [26] = test system: Candida tropicalis ATCC 750
# [27] = test system: Enterobacter cloacae 14-262
# Escherichia coli 170 = test system: Escherichia coli 170
# [28] = test system: Staphylococcus aureus 06-051
# Escherichia coli 09-280 = test system: Escherichia coli 09-280
# Candida albicans SC5314 = test system: Candida albicans SC5314
# [29] = test system: Klebsiella pneumoniae 01-239
# [30] = test system: Pseudomonas aeruginosa 3599
# [31] = test system: Cryptococcus neoformans var. grubii H99
# [32] = test system: Enterobacter cloacae 06-267
# [33] = test system: Cryptococcus neoformans var. neoformans B3501
# [34] = test system: Acinetobacter baumannii 5821
# [35] = test system: Candida parapsilosis ATCC 22019
# [36] = test system: Pseudomonas aeruginosa 5106
# [37] = test system: Staphylococcus aureus 01-001
# [38] = test system: Pseudomonas aeruginosa ATCC 9027
# Escherichia coli 09-240 = test system: Escherichia coli 09-240
# [39] = test system: Klebsiella pneumoniae 01-252
# [40] = test system: Candida glabrata ATCC 90030
# Escherichia coli 5509 = test system: Escherichia coli 5509
compound,measurement,setting,value
CC[C@H](C)[C@H](NC(=O)[C@H](C)NC(=O)CNC(=O)[C@@H]1CCCN1C(=O)[C@@H](NC(=O)[C@H](CC(C)C)NC(=O)CNC(=O)[C@H](Cc1c[nH]c2ccccc12)NC(=O)[C@H](CC(C)C)NC(=O)[C@@H](N)Cc1ccccc1)[C@@H](C)CC)C(=O)N[C@@H](CO)C(=O)N[C@@H](C)C(=O)N[C@H](C(=O)N[C@H](C(=O)N[C@@H](CO)C(=O)N[C@@H](CC(C)C)C(=O)N[C@H](C(=O)N[C@@H](CCCCN)C(=O)N[C@@H](CCCCN)C(N)=O)[C@@H](C)CC)[C@@H](C)O)C(C)C [FLWGLIPGAISAVTSLIKK],MIC,[1],15.9 µM
same,MIC,[2],9.93 µM and 7.94 µM
same,MIC,[3],7.94 µM
same,MIC,[4],4.96 µM
same,MIC,Acinetobacter baumannii,14.4 µM
same,MIC,[5],4.96 µM
same,MIC,[6],4.96 µM
same,MIC,[7],4.96 µM
same,MIC,Escherichia coli AB94012,≥ 49.6 µM
same,MIC,[8],4.96 µM
same,MIC,[9],> 31.8 µM
same,MIC,Candida albicans AY93025,9.93 µM
same,MIC,[10],4.96 µM
same,MIC,[11],2.48 µM
same,MIC,[12],> 31.8 µM
same,MIC,[13],≥ 49.6 µM
same,MIC,[14],31.8 µM
same,MIC,[15],31.8 µM
same,MIC,[16],31.8 µM
same,MIC,[17],2.48 µM
CC[C@H](C)[C@H](NC(=O)[C@H](CC(C)C)NC(=O)[C@H](Cc1cnc[nH]1)NC(=O)[C@@H]1CCCN1C(=O)[C@H](CC(C)C)NC(=O)[C@@H](NC(=O)[C@H](CCCCN)NC(=O)[C@H](C)NC(=O)[C@@H](NC(=O)CNC(=O)[C@H](CCCCN)NC(=O)[C@H](CC(C)C)NC(=O)CNC(=O)[C@H](CC(C)C)NC(=O)[C@H](CCCCN)NC(=O)[C@H](CC(C)C)NC(=O)[C@H](CC(C)C)NC(=O)[C@@H]1CCCN1C(=O)CNC(=O)[C@H](CC(C)C)NC(=O)[C@H](Cc1ccccc1)NC(=O)CN)C(C)C)C(C)C)C(=O)N1CCC[C@H]1C(=O)N[C@@H](CO)C(=O)N[C@@H](CCCN=C(N)N)C(=O)N[C@@H](CCC(N)=O)C(=O)N[C@@H](CCC(N)=O)C(=O)O [GFLGPLLKLGLKGVAKVLPHLIPSRQQ],MIC,[1],6 µM
same,MIC,[18],25 µM
same,MIC,[9],6 µM
same,MIC,[19],25 µM
same,MIC,[20],12.5 µM
same,MIC,[12],25 µM
NCCCC[C@H](NC(=O)CN)C(=O)N[C@@H](CCCCN)C(=O)N[C@@H](Cc1ccc(O)cc1)C(=O)N[C@@H](CCCN=C(N)N)C(=O)N[C@@H](CCCN=C(N)N)C(=O)N[C@@H](Cc1ccccc1)C(=O)N[C@@H](CCCN=C(N)N)C(=O)N[C@@H](Cc1c[nH]c2ccccc12)C(=O)N[C@@H](CCCCN)C(=O)N[C@@H](Cc1ccccc1)C(=O)N[C@@H](CCCN=C(N)N)C(=O)N[C@@H](CCCCN)C(=O)NCC(=O)N[C@@H](CCCN=C(N)N)C(=O)N[C@@H](Cc1ccccc1)C(=O)N[C@@H](Cc1c[nH]c2ccccc12)C(=O)N[C@@H](Cc1ccccc1)C(=O)N[C@@H](Cc1c[nH]c2ccccc12)C(=O)NCC(N)=O [GKKYRRFRWKFRKGRFWFWG],MIC,[1],5.73 µM
same,MIC,[2],5.73 µM
same,MIC,[21],5.73 µM
same,MIC,[22],11.5 µM
same,MIC,[23],22.9 µM
same,MIC,[24],5.73 µM
same,MIC,[9],5.73 µM
same,MIC,[15],5.73 µM
same,MIC,[25],1.43 µM
CC[C@H](C)[C@H](N)C(=O)N[C@@H](CC(C)C)C(=O)N[C@@H](CO)C(=O)N[C@@H](C)C(=O)N[C@H](C(=O)N[C@@H](Cc1c[nH]c2ccccc12)C(=O)N[C@@H](CO)C(=O)NCC(=O)N[C@H](C(=O)N[C@@H](CCCCN)C(=O)N[C@@H](CO)C(=O)N[C@@H](CC(C)C)C(=O)N[C@@H](Cc1ccccc1)C(N)=O)[C@@H](C)CC)[C@@H](C)CC [ILSAIWSGIKSLF],MIC,[26],25 µM
same,MIC,[1],10 µM
same,MIC,[27],≥ 32 µM
same,MIC,Escherichia coli 170,≥ 32 µM
same,MIC,[28],4 µM
same,MIC,Escherichia coli 09-280,≥ 32 µM
same,MIC,Candida albicans SC5314,25 µM
same,MIC,[3],8 µM
same,MIC,[29],30 µM
same,MIC,[30],≥ 32 µM
same,MIC,[31],25 µM
same,MIC,[32],≥ 32 µM
same,MIC,[33],12.5 µM
same,MIC,[9],> 32 µM
same,MIC,[34],10 µM
same,MIC,[35],≥ 400 µM
same,MIC,[36],≥ 32 µM
same,MIC,[37],4 µM
same,MIC,[38],6 µM
same,MIC,Escherichia coli 09-240,30 µM
same,MIC,[39],≥ 32 µM
same,MIC,[15],15 µM
same,MIC,[40],≥ 400 µM
same,MIC,Escherichia coli 5509,≥ 32 µM
